From PubChem BioAssay AID1259411 (Chemical Carcinogenesis Research Information System (CCRIS), 2018) come the findings set out here.

This data set deals with rodent carcinogenicity bioassays, tumor incidence. In words: CCRIS carcinogenicity studies. The procedure, abridged:
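Archive of carcinogenicity, mutagenicity, tumor promotion and tumor inhibition results drawn from journals, NCI reports and other sources, expert-reviewed; covers 1985-2011 and is no longer updated.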

Activity calls are given as the source filed them. The rule behind the calls is not given here.

Turning to `CN(C)c1ccc(C(=C2C=CC(=[N+](C)C)C=C2)c2ccccc2)cc1`, the carcinogen call reads like this: (Species: MOUSE, Strain/Sex: B6C3F1/FEMALE, Route: ORAL (DIET), Dose: 0, 100, 225, 450 PPM IN DIET FOR 2 YRS, Dose: 0, 100, 225, 450 PPM IN DIET FOR 2 YRS) “inactive; negative”; (Species: RAT, Strain/Sex: F344/N/FEMALE, Route: ORAL (DIET), Dose: 0, 100, 300, 600 PPM IN DIET FOR 2 YRS, Dose: 0, 100, 300, 600 PPM IN DIET FOR 2 YRS, Tumor Site: Type of Lesion: THYROID: FOLLICULAR CELL ADENOMA OR CARCINOMA, LIVER: HEPATOCELLULAR ADENOMA, MAMMARY GLAND: CARCINOMA, Tumor Site: Type of Lesion: THYROID: FOLLICULAR CELL ADENOMA OR CARCINOMA, LIVER: HEPATOCELLULAR ADENOMA, MAMMARY GLAND: CARCINOMA) “equivocal; none of the tumor incidences reached statistical significance; in som”.
On to `Nc1ccccc1C(=O)O`, for which the carcinogen call is “inactive; negative” (Species: MOUSE, Strain/Sex: B6C3F1/FEMALE, Route: ORAL, Dose: 0, 25000, 50000 PPM IN DIET, Dose: 0, 25000, 50000 PPM IN DIET); “inactive; negative” (Species: MOUSE, Strain/Sex: B6C3F1/MALE, Route: ORAL, Dose: 0, 25000, 50000 PPM IN DIET, Dose: 0, 25000, 50000 PPM IN DIET); “inactive; negative” (Species: RAT, Strain/Sex: F344/FEMALE, Route: ORAL, Dose: 0, 15000, 30000 PPM IN DIET, Dose: 0, 15000, 30000 PPM IN DIET); “inactive; negative” (Species: RAT, Strain/Sex: F344/MALE, Route: ORAL, Dose: 0, 15000, 30000 PPM IN DIET, Dose: 0, 15000, 30000 PPM IN DIET).
On to `O[C@@H]1[C@@H]2O[C@@H]2c2c(ccc3cc4ccc5ccccc5c4nc23)[C@H]1O`, for which the carcinogen call was “active; positive” (Species: MOUSE, Strain/Sex: CD-1/FEMALE, Route: INTRAPERITONEAL, Dose: 0, 28 NMOL (TOTAL DOSE) ADMINISTERED AS 1/7 OF DOSE WITHIN 24 HR AFTER BIRTH, 2/7 OF DOSE AT 8 D OLD, 4/7 OF DOSE AT 15, Tumor Site: Type of Lesion: LUNG: TUMOR); “active; positive” (Species: MOUSE, Strain/Sex: CD-1/FEMALE, Route: INTRAPERITONEAL, Dose: 0, 70, 175 NMOL (TOTAL DOSE) ADMINISTERED AS 1/7 OF DOSE WITHIN 24 HR AFTER BIRTH, 2/7 OF DOSE AT 8 D OLD, 4/7 OF DOSE A, Dose: 0, 70, 175 NMOL (TOTAL DOSE) ADMINISTERED AS 1/7 OF DOSE WITHIN 24 HR AFTER BIRTH, 2/7 OF DOSE AT 8 D OLD, 4/7 OF DOSE A, Tumor Site: Type of Lesion: LIVER: TUMOR, LUNG: TUMOR); “active; positive” (Species: MOUSE, Strain/Sex: CD-1/MALE, Route: INTRAPERITONEAL, Dose: 0, 28 NMOL (TOTAL DOSE) ADMINISTERED AS 1/7 OF DOSE WITHIN 24 HR AFTER BIRTH, 2/7 OF DOSE AT 8 D OLD, 4/7 OF DOSE AT 15, Tumor Site: Type of Lesion: LIVER: TUMOR, LUNG: TUMOR); “active; positive” (Species: MOUSE, Strain/Sex: CD-1/MALE, Route: INTRAPERITONEAL, Dose: 0, 70, 175 NMOL (TOTAL DOSE) ADMINISTERED AS 1/7 OF DOSE WITHIN 24 HR AFTER BIRTH, 2/7 OF DOSE AT 8 D OLD, 4/7 OF DOSE A, Dose: 0, 70, 175 NMOL (TOTAL DOSE) ADMINISTERED AS 1/7 OF DOSE WITHIN 24 HR AFTER BIRTH, 2/7 OF DOSE AT 8 D OLD, 4/7 OF DOSE A, Tumor Site: Type of Lesion: LIVER: TUMOR, LUNG: TUMOR).
As to `CC1=C(C)C(=O)C(C(CCCCCC(=O)O)c2ccccc2)=C(C)C1=O` (stereo not drawn), the carcinogen call is “inactive; negative” (Species: RAT, Strain/Sex: F344/FEMALE, Route: ORAL, Dose: 0, 3, 10, 30, 100 MG/KG/D IN THE DIET FOR 52 WK (STUDY DURATION: 52 WK), Dose: 0, 3, 10, 30, 100 MG/KG/D IN THE DIET FOR 52 WK (STUDY DURATION: 52 WK)) and “inactive; negative” (Species: RAT, Strain/Sex: F344/MALE, Route: ORAL, Dose: 0, 3, 10, 30, 100 MG/KG/D IN THE DIET FOR 52 WK (STUDY DURATION: 52 WK), Dose: 0, 3, 10, 30, 100 MG/KG/D IN THE DIET FOR 52 WK (STUDY DURATION: 52 WK)).
In the case of `O=CNc1nc(-c2ccc([N+](=O)[O-])o2)cs1`, the carcinogen call reads like this: (Species: DOG, Route: ORAL, Tumor Site: Type of Lesion: URINARY BLADDER, GALL BLADDER) “active; positive”; (Species: MOUSE, Route: ORAL, Tumor Site: Type of Lesion: URINARY BLADDER) “active; positive”; (Species: MOUSE, Strain/Sex: CD-1/FEMALE, Route: ORAL, Dose: 0, 0.1% IN DIET FOR 36 WK (STUDY DURATION: 81 WK), Tumor Site: Type of Lesion: BLADDER: TRANSITIONAL CELL CARCINOMA, SPINDLE CELL TUMOR, SQUAMOUS CELL CARCINOMA) “active; positive”; (Species: MOUSE, Strain/Sex: CD-1/MALE, Route: ORAL, Dose: 0, 0.1% IN DIET FOR 40 WK (STUDY DURATION: 70 WK), Tumor Site: Type of Lesion: BLADDER: TRANSITIONAL CELL CARCINOMA, SPINDLE CELL TUMOR, SQUAMOUS CELL CARCINOMA) “active; positive”; (Species: RAT, Route: ORAL, Tumor Site: Type of Lesion: KIDNEY, MAMMARY GLAND) “active; positive”; (Species: RAT, Strain/Sex: F344/MALE, Route: ORAL, Dose: 0.001-0.2% IN DIET FOR 30 WK, Tumor Site: Type of Lesion: URINARY BLADDER: CARCINOMA) “active; positive”. In addition, the carcinogen call by setting is: (Species: RAT, Strain/Sex: SPRAGUE-DAWLEY/FEMALE, Route: ORAL, Dose: 0, 0.188% IN DIET FOR 20 WK FOLLOWED BY CONTROL DIET FOR 20 WK (STUDY DURATION: 40 WK), Tumor Site: Type of Lesion: BLADDER: TRANSITIONAL CELL CARCINOMA) “active; positive”; (Species: RAT, Strain/Sex: SPRAGUE-DAWLEY/FEMALE, Route: ORAL, Dose: 0.188% IN DIET FOR 20 WK THEN BASAL DIET FOR 20 WK, Tumor Site: Type of Lesion: URINARY BLADDER: TRANSITIONAL CELL CARCINOMA) “active; positive”.
Turning to `CCC(Br)(CC)C(=O)NC(N)=O`, the carcinogen call reads like this: (Species: MOUSE, Strain/Sex: B6C3F1/FEMALE, Route: ORAL, Dose: 0, 1250, 2500 PPM IN DIET, Dose: 0, 1250, 2500 PPM IN DIET) “inactive; negative”; (Species: MOUSE, Strain/Sex: B6C3F1/MALE, Route: ORAL, Dose: 0, 1250, 2500 PPM IN DIET, Dose: 0, 1250, 2500 PPM IN DIET) “inactive; negative”; (Species: RAT, Strain/Sex: F344/FEMALE, Route: ORAL, Dose: 0, 1250, 2500 PPM IN DIET, Dose: 0, 1250, 2500 PPM IN DIET) “inactive; negative”; (Species: RAT, Strain/Sex: F344/MALE, Route: ORAL, Dose: 0, 1250, 2500 PPM IN DIET, Dose: 0, 1250, 2500 PPM IN DIET) “inactive; negative”.
As to `CN(C)c1ccc(C(=C2C=CC(=[N+](C)C)C=C2)c2ccc(N(C)C)cc2)cc1`, the carcinogen call (Species: MOUSE, Strain/Sex: B6C3F1/FEMALE, Route: ORAL, Dose: 0, 100, 300, 600 PPM IN DIET FOR 104 WK (STUDY DURATION: 2 YR), Dose: 0, 100, 300, 600 PPM IN DIET FOR 104 WK (STUDY DURATION: 2 YR), Tumor Site: Type of Lesion: LIVER: MALIGNANT NEOPLASM, HARDERIAN GLAND: ADENOMA, UTERUS: TYPE-A RETICULUM CELL SARCOMA, OVARIES: TYPE-A RETICULUM CE, Tumor Site: Type of Lesion: LIVER: MALIGNANT NEOPLASM, HARDERIAN GLAND: ADENOMA, UTERUS: TYPE-A RETICULUM CELL SARCOMA, OVARIES: TYPE-A RETICULUM CE) was “active; positive”; the carcinogen call (Species: MOUSE, Strain/Sex: B6C3F1/MALE, Route: ORAL, Dose: 0, 100, 300, 600 PPM IN DIET FOR 104 WK (STUDY DURATION: 2 YR), Dose: 0, 100, 300, 600 PPM IN DIET FOR 104 WK (STUDY DURATION: 2 YR), Tumor Site: Type of Lesion: LIVER: MALIGNANT NEOPLASM, HARDERIAN GLAND: ADENOMA) was “active; positive”; the carcinogen call (Species: RAT, Strain/Sex: F344/FEMALE, Route: ORAL, Dose: 0, 100, 300, 600 PPM IN FEED FOR 24 MO (STUDY DURATION: 24 MO), Dose: 0, 100, 300, 600 PPM IN FEED FOR 24 MO (STUDY DURATION: 24 MO), Tumor Site: Type of Lesion: LIVER: HEPATOCELLULAR ADENOMA, THYROID GLAND: FOLLICULAR CELL ADENOCARCINOMA) was “active; positive”; the carcinogen call (Species: RAT, Strain/Sex: F344/MALE, Route: ORAL, Dose: 0, 100, 300, 600 PPM IN FEED FOR 24 MO (STUDY DURATION: 24 MO), Dose: 0, 100, 300, 600 PPM IN FEED FOR 24 MO (STUDY DURATION: 24 MO), Tumor Site: Type of Lesion: LIVER: HEPATOCELLULAR ADENOMA, THYROID GLAND: FOLLICULAR CELL ADENOCARCINOMA) was “active; positive”.
